Among the test systems are 786-0 renal; CCRF-CEM leukemia; HL-60(TB) leukemia; MALME-3M melanoma; MCF7 breast; MDA-MB-435; NCI-H226 lung; OVCAR-8 ovarian; RPMI-8226 leukemia; RXF 393 renal; SF-539 CNS; SK-MEL-2 melanoma; SK-OV-3 ovarian; SN12C renal.
What all share (test): growth of human tumour cells (NCI), 48 h

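All cell lines were grown in 96-well plates and treated with compound for 48 hours. TGI: total growth inhibition.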

Regarding `Cc1cn(C2C=CC(COP(=O)(OCc3ccc([N+](=O)[O-])o3)N(C)CCCCCl)O2)c(=O)[nH]c1=O` (stereo not drawn), the TGI in the assay on 786-0 renal is 23.1 µM; with CCRF-CEM leukemia, 25.4 µM; with HL-60(TB) leukemia, 32.3 µM; with MALME-3M melanoma it was 7.36 µM; with MCF7 breast, 19.6 µM; in the assay with MDA-MB-435, 4.42 µM. For the same compound, the TGI turned out to be 23.6 µM in the assay on NCI-H226 lung; 32.4 µM with OVCAR-8 ovarian; 14.1 µM with RPMI-8226 leukemia; 11.3 µM with RXF 393 renal; 12.3 µM in the assay on SF-539 CNS; 12.9 µM with SK-MEL-2 melanoma. Also, the TGI was 24 µM in the assay on SK-OV-3 ovarian and 23.2 µM in the assay with SN12C renal.

On to `Cn1c(=O)c2sc3c4sc5c(=O)n(C)c6ccccc6c5c4sc3c2c2ccccc21`, for which the TGI in the assay on 786-0 renal, with CCRF-CEM leukemia, in the assay with HL-60(TB) leukemia, in the assay with MALME-3M melanoma, with MCF7 breast and in the assay with MDA-MB-435 was more than 100 µM in each case. In addition, the TGI in the assay on NCI-H226 lung is more than 100 µM; with OVCAR-8 ovarian, more than 100 µM; with RPMI-8226 leukemia, more than 100 µM; with RXF 393 renal, 97.6 µM; in the assay on SF-539 CNS it was more than 100 µM; in the assay on SK-MEL-2 melanoma, more than 100 µM. The TGI in the assay on SK-OV-3 ovarian and with SN12C renal was more than 100 µM each time.

Regarding `CC(C)(C)OC(=O)N1CC(CCl)c2ccc(O)cc21` (stereo not drawn), the TGI was determined as 12.3 µM in the assay on 786-0 renal; 9.61 µM in the assay with CCRF-CEM leukemia; 5.29 µM in the assay on HL-60(TB) leukemia; 3.01 µM in the assay on MALME-3M melanoma; 5.02 µM in the assay with MCF7 breast; 4.06 µM with MDA-MB-435. Further, the TGI in the assay on NCI-H226 lung turned out to be 4.53 µM; in the assay on OVCAR-8 ovarian, 11.7 µM; in the assay on RPMI-8226 leukemia, 7.96 µM; with RXF 393 renal, 2.85 µM; with SF-539 CNS, 4.96 µM; with SK-MEL-2 melanoma, 3.2 µM. For the same compound, the TGI in the assay on SK-OV-3 ovarian is 11.8 µM; in the assay on SN12C renal, 11.5 µM.

Consider `O=C(O)c1nc2ccc(Cl)cc2[nH]c1=O`, for which the TGI with 786-0 renal, in the assay on CCRF-CEM leukemia, in the assay on HL-60(TB) leukemia, with MALME-3M melanoma, with MCF7 breast and in the assay on MDA-MB-435 was more than 100 µM in each case. The TGI in the assay with NCI-H226 lung, in the assay with OVCAR-8 ovarian, with RPMI-8226 leukemia, in the assay on RXF 393 renal, in the assay on SF-539 CNS and with SK-MEL-2 melanoma was more than 100 µM each time. Besides, the TGI in the assay with SK-OV-3 ovarian and in the assay on SN12C renal was more than 100 µM each time.

With `O=C(/C=C/c1ccc(OCc2ccccc2)cc1)NCc1ccc(C(=O)NCCc2c[nH]c3ccccc23)cc1`, the TGI is 16.7 µM in the assay with 786-0 renal; more than 100 µM in the assay with CCRF-CEM leukemia; more than 100 µM in the assay on HL-60(TB) leukemia; 43.3 µM with MALME-3M melanoma; more than 100 µM in the assay with MCF7 breast; more than 100 µM in the assay on MDA-MB-435. Moreover, the TGI in the assay with NCI-H226 lung is more than 58.8 µM; in the assay with OVCAR-8 ovarian, 31.7 µM; in the assay with RPMI-8226 leukemia it was more than 100 µM; in the assay on RXF 393 renal, 24.9 µM; in the assay with SF-539 CNS, 11.2 µM; with SK-MEL-2 melanoma, more than 82.6 µM. For the same compound, the TGI in the assay on SK-OV-3 ovarian is 44.4 µM; with SN12C renal, more than 100 µM.

As for `CC1=NN(c2nc(N)nc(CSc3cc(Cl)c(C)cc3S(N)(=O)=O)n2)C(C)(C)C1`, the TGI in the assay on 786-0 renal, in the assay with CCRF-CEM leukemia, with HL-60(TB) leukemia, with MALME-3M melanoma, with MCF7 breast and in the assay on MDA-MB-435 was more than 10 µM throughout. Also, the TGI in the assay on NCI-H226 lung, in the assay with OVCAR-8 ovarian, in the assay on RPMI-8226 leukemia, with RXF 393 renal, with SF-539 CNS and with SK-MEL-2 melanoma was more than 10 µM throughout. In addition, the TGI with SK-OV-3 ovarian and with SN12C renal was more than 10 µM each time.

In the case of `COc1cc2cc(C(=O)N3CC(CCl)c4ccc([N+](C)(C)Cc5ccc([N+](=O)[O-])cc5)cc43)[nH]c2c(OC)c1OC` (stereo not drawn), the TGI with 786-0 renal was 6.54 µM; with CCRF-CEM leukemia it was 7.01 µM; in the assay with HL-60(TB) leukemia, 5.55 µM; with MALME-3M melanoma it was 7.42 µM; in the assay on MCF7 breast it was more than 100 µM; in the assay on MDA-MB-435, 24 µM. Besides, the TGI turned out to be 15.4 µM in the assay with NCI-H226 lung; 4.69 µM with OVCAR-8 ovarian; 4.62 µM in the assay on RPMI-8226 leukemia; 3.09 µM with RXF 393 renal; 5.64 µM with SF-539 CNS; 5.26 µM in the assay on SK-MEL-2 melanoma. Further, the TGI with SK-OV-3 ovarian amounted to 9.64 µM; in the assay with SN12C renal, 31 µM.

`C=C1C(=O)O[C@H]2C1C[C@@H](O)/C(C)=C/CC[C@@]1(C)O[C@H]21` (stereo partly drawn): the TGI with 786-0 renal was more than 48.2 µM; with CCRF-CEM leukemia, 12.6 µM; with HL-60(TB) leukemia, 9.27 µM; in the assay with MALME-3M melanoma it was 16.9 µM; with MCF7 breast, 35 µM; in the assay on MDA-MB-435, 23.7 µM. In addition, the TGI in the assay with NCI-H226 lung is more than 96.4 µM; in the assay with OVCAR-8 ovarian, 45.1 µM; with RPMI-8226 leukemia it was 25.8 µM; in the assay on RXF 393 renal it was 26.5 µM; with SF-539 CNS it was 54.3 µM; in the assay with SK-MEL-2 melanoma, more than 54.8 µM. Further, the TGI with SK-OV-3 ovarian was more than 82.7 µM; with SN12C renal it was more than 55.9 µM.

Turning to `CCCN(CCC)C(=S)N/N=C(/C)c1ccccc1O`, the TGI with 786-0 renal was 26.7 µM; with CCRF-CEM leukemia, more than 33.9 µM; in the assay on HL-60(TB) leukemia, more than 29.5 µM; in the assay with MALME-3M melanoma, 28.8 µM; in the assay with MCF7 breast, more than 43.6 µM; in the assay on MDA-MB-435, more than 100 µM. Further, the TGI was more than 41 µM in the assay on NCI-H226 lung; 33 µM in the assay with OVCAR-8 ovarian; more than 57.7 µM in the assay with RPMI-8226 leukemia; more than 87.1 µM in the assay with RXF 393 renal; 19.4 µM in the assay on SF-539 CNS; 60.9 µM in the assay with SK-MEL-2 melanoma. The TGI is more than 75.5 µM with SK-OV-3 ovarian and 26 µM in the assay on SN12C renal.

With `CCOc1ccccc1NC(=O)C(=O)C(/C(=N/N)C(=O)OC)c1nc2ccc([N+](=O)[O-])cc2[nH]c1=O` (stereo not drawn), the TGI in the assay on 786-0 renal, in the assay with CCRF-CEM leukemia, in the assay with HL-60(TB) leukemia, in the assay on MALME-3M melanoma, in the assay with MCF7 breast and in the assay on MDA-MB-435 was more than 100 µM each time. For the same compound, the TGI with NCI-H226 lung, in the assay on OVCAR-8 ovarian, in the assay with RPMI-8226 leukemia, in the assay on RXF 393 renal, in the assay with SF-539 CNS and in the assay with SK-MEL-2 melanoma was more than 100 µM in each case. Besides, the TGI with SK-OV-3 ovarian and in the assay with SN12C renal was more than 100 µM throughout.

As for `CC(=O)c1c(SCCN2CCOCC2)n(-c2ccccc2)c(=S)n(-c2ccccc2)c1=O`, the TGI turned out to be 26.4 µM in the assay with 786-0 renal; 32.5 µM with CCRF-CEM leukemia; 51.9 µM in the assay on HL-60(TB) leukemia; 58.6 µM with MALME-3M melanoma; 5.31 µM with MCF7 breast; 33.6 µM in the assay with MDA-MB-435. In addition, the TGI with NCI-H226 lung is more than 73.4 µM; in the assay on OVCAR-8 ovarian, 39.5 µM; with RPMI-8226 leukemia, more than 29.4 µM; in the assay on RXF 393 renal, 25.7 µM; in the assay with SF-539 CNS, 43.9 µM; in the assay on SK-MEL-2 melanoma, 39.4 µM. The TGI is more than 74.2 µM in the assay on SK-OV-3 ovarian and 34.4 µM in the assay with SN12C renal.

Turning to `CN(CCNC(=O)c1c[nH]c2c1ccc1ccccc12)CCNC(=O)c1c[nH]c2c1ccc1ccccc12`, the TGI in the assay with 786-0 renal was 2.87 µM; in the assay on CCRF-CEM leukemia, 3.86 µM; in the assay with HL-60(TB) leukemia it was 4.29 µM; in the assay with MALME-3M melanoma it was 23 µM; in the assay with MCF7 breast it was 2.74 µM; in the assay with MDA-MB-435 it was 3.47 µM. In addition, the TGI in the assay with NCI-H226 lung is 40.5 µM; in the assay on OVCAR-8 ovarian, 3.91 µM; with RPMI-8226 leukemia, 15.6 µM; with RXF 393 renal, 2.62 µM; in the assay with SF-539 CNS, 3.39 µM; with SK-MEL-2 melanoma it was 3.91 µM. For the same compound, the TGI in the assay with SK-OV-3 ovarian turned out to be 18.4 µM; in the assay with SN12C renal it was 11.7 µM.

The record behind these values is PubChem BioAssay (NCI).
